# Activity calls are given as the source filed them.
# Tests used:
# Protein Wnt-3a = Protein Wnt-3a (Mus musculus, UniProt P27467); test: SAR analysis of small molecule antagonists of Gli-SUFU in a Wnt3a luminescent reporter assay.; format: functional
# HeLa = test: HeLa cell cytotoxicity, dose response, cytotoxicity control, ATP luminescence, cherry-pick samples (AID 687004); format: functional, cell-based; details: Homo sapiens
# HEK293 = test: HEK293T cell cytotoxicity, dose response, cytotoxicity control, ATP luminescence, cherry-pick samples (AID 687005); format: functional, cell-based; details: Homo sapiens;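 note: cells exposed to compound for 48 hours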
# [1] = HEK293 Cytotoxicity Assay Measured in Cell-Based System Using Plate Reader - 7071-01_Inhibitor_Dose_CherryPick_Activity_Set2.; format: functional
# [2] = human group III sPLA2 inhibitors, dose response, biochemical, QFRET, IC50 (AID 743457);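 note: green fluorescence rise as the enzyme cleaves BODIPY PC-A2 in liposomes; potency for inhibition of the enzyme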
# [3] = molecular target: T1, Zinc finger protein mex-5 (Caenorhabditis elegans, UniProt Q9XUB2); test: MEX-5/TCR-2 RNA interaction inhibitors, dose response, biochemical, C. elegans, fluorescence polarization (AID 1960)
# T1 sequence (Q9XUB2 whole entry): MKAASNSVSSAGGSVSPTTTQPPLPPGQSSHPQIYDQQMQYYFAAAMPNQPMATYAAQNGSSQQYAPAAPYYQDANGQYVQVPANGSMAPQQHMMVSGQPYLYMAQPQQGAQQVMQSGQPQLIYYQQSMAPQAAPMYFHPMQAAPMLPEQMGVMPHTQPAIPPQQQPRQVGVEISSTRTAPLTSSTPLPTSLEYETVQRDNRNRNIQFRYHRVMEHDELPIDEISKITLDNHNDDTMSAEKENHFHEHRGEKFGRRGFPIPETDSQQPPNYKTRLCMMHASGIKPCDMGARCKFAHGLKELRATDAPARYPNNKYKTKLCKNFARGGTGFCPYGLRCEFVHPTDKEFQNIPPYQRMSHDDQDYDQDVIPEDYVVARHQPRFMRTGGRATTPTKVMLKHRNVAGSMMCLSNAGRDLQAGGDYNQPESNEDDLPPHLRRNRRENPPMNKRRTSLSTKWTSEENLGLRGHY
# [4] = molecular target: T2, RNA-binding protein pos-1 (Caenorhabditis elegans, UniProt G5EF15); test: inhibitors of POS-1/mex-3 RNA binding, dose response, biochemical, fluorescence polarization (AID 1964);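 note: purified POS-1 fused to maltose binding protein made in E. coli; potency of compounds blocking POS-1 binding to fluorescent RNA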
# T2 sequence (G5EF15 whole entry): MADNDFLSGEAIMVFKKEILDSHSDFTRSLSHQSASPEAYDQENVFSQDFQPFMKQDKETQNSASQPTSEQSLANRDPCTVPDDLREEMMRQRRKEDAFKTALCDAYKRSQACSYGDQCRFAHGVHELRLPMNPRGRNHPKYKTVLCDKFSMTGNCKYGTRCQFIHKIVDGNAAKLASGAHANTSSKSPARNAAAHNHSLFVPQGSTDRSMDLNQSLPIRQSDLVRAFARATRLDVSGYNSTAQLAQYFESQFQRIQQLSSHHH
# [5] = molecular target: T3, Histone-lysine N-methyltransferase NSD2 (Homo sapiens, UniProt O96028); format: biochemical
# T3 sequence (O96028 whole entry): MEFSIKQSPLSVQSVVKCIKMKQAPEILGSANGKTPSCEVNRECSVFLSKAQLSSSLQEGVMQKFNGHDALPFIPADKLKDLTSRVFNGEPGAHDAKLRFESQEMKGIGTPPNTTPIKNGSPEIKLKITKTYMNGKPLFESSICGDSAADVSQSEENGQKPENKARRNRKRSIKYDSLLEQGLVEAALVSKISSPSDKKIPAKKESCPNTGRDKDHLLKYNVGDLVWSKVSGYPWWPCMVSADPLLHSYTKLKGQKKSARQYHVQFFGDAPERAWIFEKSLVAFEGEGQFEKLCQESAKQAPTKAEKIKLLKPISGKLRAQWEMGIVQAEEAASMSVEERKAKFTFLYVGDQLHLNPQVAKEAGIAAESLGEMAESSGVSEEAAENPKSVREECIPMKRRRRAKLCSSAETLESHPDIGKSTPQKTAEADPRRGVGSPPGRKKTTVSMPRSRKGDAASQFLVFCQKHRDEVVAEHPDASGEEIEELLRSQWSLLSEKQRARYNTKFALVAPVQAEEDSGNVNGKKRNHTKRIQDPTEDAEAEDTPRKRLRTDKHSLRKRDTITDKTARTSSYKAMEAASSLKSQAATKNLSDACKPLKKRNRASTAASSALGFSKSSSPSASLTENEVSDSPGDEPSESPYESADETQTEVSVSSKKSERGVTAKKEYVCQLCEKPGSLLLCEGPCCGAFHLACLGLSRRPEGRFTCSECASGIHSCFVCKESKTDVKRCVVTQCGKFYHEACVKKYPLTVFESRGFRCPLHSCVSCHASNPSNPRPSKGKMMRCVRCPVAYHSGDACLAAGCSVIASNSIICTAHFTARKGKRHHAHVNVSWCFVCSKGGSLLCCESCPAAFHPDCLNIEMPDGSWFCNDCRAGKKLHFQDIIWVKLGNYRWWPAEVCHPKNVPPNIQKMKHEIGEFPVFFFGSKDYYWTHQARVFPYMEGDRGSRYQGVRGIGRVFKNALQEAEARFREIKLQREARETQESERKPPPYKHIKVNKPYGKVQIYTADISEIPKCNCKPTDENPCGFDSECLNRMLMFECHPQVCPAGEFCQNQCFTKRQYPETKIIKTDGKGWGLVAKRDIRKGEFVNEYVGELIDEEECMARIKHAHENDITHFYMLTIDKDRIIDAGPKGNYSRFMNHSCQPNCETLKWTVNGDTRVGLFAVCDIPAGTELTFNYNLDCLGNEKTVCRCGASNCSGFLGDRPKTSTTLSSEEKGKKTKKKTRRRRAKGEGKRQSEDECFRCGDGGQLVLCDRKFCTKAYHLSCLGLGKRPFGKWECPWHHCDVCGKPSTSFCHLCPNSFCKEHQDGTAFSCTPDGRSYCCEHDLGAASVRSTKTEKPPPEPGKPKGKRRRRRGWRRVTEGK
# cells [6] = format: functional, cell-based
# [7] = HepG2 cell cytotoxicity, dose response, cytotoxicity control for Shn3 inhibitor project, CellTiter-Glo, cherry-picked (AID 624134); format: functional, cell-based
# [8] = molecular target: FAD-linked sulfhydryl oxidase ALR (Homo sapiens, UniProt P55789); test: inhibitors of human ALR sulfhydryl oxidase, dose response, biochemical, H2O2 detection, luminescence, cherry-pick (AID 493248)
# Chain of FAD-linked sulfhydryl oxidase ALR (P55789 whole entry): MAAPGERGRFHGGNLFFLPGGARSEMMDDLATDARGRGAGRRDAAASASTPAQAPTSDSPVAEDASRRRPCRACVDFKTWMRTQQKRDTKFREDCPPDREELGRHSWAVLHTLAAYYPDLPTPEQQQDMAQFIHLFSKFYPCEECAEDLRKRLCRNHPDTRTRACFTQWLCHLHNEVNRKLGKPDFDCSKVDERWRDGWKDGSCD
# Albumin = Albumin (Bos taurus, UniProt P02769); test: Counterscreen for inhibitors of T-cell receptor (TCR)-CD3 interaction: Fluorescence-based biochemical high throughput dose response assay to identify inhibitors of T-cell receptor (TCR)-CD3 interaction using a TAMRA-labeled BSA probe.; format: functional
# Chain of Albumin (P02769 whole entry): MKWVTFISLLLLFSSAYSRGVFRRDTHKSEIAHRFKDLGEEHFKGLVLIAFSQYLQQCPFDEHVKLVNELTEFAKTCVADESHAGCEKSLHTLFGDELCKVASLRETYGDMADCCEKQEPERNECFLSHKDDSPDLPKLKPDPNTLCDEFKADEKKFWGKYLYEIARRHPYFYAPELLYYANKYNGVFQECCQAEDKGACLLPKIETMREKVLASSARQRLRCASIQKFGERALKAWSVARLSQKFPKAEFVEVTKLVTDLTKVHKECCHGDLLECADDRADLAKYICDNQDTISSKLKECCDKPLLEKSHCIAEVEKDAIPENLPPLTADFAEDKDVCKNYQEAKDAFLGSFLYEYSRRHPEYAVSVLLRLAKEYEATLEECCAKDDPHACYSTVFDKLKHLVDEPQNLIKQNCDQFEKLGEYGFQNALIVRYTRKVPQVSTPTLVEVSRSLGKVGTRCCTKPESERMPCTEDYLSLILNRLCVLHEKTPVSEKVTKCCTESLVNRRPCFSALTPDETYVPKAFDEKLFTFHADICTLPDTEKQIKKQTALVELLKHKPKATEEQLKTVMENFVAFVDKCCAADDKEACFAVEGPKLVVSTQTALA
# cells [9] = format: functional, cell-based; remark: listed apart in the source
# [10] = Shn3 3'UTR reporter inhibitors, dose response, cell-based, Clone20 osteoblasts, firefly luciferase, cherry-picked (AID 624132); format: functional;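 note: firefly luciferase luminescence from reporter carrying the Shn3 3'UTR in osteoblasts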
# Caspase-6 = molecular target: T4, Caspase-6 (Homo sapiens, UniProt P55212); test: human caspase-6 inhibitors, dose response, biochemical, VEID-R110 fluorescence, cherry-pick (AID 720632)
# T4 sequence (P55212 whole entry): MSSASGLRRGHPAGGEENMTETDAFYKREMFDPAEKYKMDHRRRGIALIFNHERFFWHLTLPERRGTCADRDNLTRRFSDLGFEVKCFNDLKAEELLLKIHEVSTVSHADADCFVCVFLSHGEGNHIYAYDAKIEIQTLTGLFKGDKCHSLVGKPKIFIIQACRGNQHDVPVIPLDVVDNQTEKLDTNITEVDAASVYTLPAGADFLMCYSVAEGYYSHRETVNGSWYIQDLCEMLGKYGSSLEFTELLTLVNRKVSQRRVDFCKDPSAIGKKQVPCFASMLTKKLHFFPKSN
# [11] = control 3'UTR Renilla luciferase suppression, dose response, counter-screen for Shn3 inhibitor project, cell-based, Clone20-Shn3RL, cherry-picked (AID 624133); format: functional
# Chain of Protein Wnt-3a (P27467 whole entry): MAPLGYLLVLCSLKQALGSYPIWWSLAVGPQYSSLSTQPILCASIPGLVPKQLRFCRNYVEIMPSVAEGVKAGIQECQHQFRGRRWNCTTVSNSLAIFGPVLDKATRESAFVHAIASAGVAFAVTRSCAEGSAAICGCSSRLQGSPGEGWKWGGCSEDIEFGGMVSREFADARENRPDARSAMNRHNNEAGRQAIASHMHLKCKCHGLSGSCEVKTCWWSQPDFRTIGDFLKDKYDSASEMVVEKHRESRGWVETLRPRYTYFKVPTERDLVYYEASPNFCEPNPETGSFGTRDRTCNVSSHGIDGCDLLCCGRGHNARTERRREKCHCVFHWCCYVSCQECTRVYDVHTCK
compound,measurement,setting,value
CCCCNc1cc(NC(=O)c2ccccc2)ncn1,IC50,Protein Wnt-3a,> 21.8 µM (inactive)
C[C@H]1CCCCO[C@H](CN(C)C(=O)Nc2ccc(F)cc2)[C@@H](C)CN([C@@H](C)CO)C(=O)c2cc(NS(=O)(=O)c3ccc(Cl)cc3)ccc2O1,AC50,HeLa,25.5 µM (active)
same,AC50,HEK293,30.6 µM (active)
same,AC50,[1],30.6 µM (active)
CCc1c(-c2nnc(S)n2Cc2ccccc2)csc1C,IC50,[2],> 122 µM (inactive)
Cc1ccc2nc(-c3ccc(O)c(O)c3)cn2c1,EC50,[3],9.7 µM (active)
same,EC50,[4],> 75 µM (not active)
same,AC50,[5],> 20 µM (inactive)
same,EC50,cells [6],> 350 µM (not active)
same,AC50,[7],> 70 µM (inactive)
same,AC50,[8],0.885 µM (active)
same,IC50,Albumin,> 94.1 µM (inactive)
same,EC50,cells [9],5.03 µM (active)
same,AC50,[10],4.2 µM (active)
same,AC50,Caspase-6,12 µM (active)
same,AC50,[11],2.47 µM (active)
